{"source": "PubChem BioAssay AID1996"}
{"conditions": "buffer; pH 7.4; 200.0 µM", "units": {"solubility kinetic": "µg/mL"}}
{"smiles": "O=C(CN1C(=O)COc2ccccc21)NC1CCCC1", "solubility kinetic": 32.9}
{"smiles": "CC(=O)Nc1ccccc1-c1nc2cc(C#N)c(C#N)cc2[nH]c1=O", "solubility kinetic": "> 49.4"}
{"smiles": "O=c1c2[nH]c3ccc(Br)cc3c2ncn1Cc1ccncc1", "solubility kinetic": 0.4}
{"smiles": "N#C/C(=C\\c1ccc2c(c1)OCCO2)C(=O)Nc1nccs1", "solubility kinetic": 28.8}
{"smiles": "CCCCCCn1c(N2CCCC2)nc2c1c(=O)n(C)c(=O)n2C", "solubility kinetic": 48.6}
{"smiles": "CCN(CC)C1CC(=O)N(c2cccc(Cl)c2)C1=O", "note": "(stereo not given)", "solubility kinetic": "> 42.1"}
{"smiles": "Cc1ccc([N+](=O)[O-])cc1S(=O)(=O)NCCc1cn2ccccc2n1", "solubility kinetic": 35}
{"smiles": "COc1ccc(NC(C)=O)cc1NC(=O)c1ccc(Cl)cc1", "solubility kinetic": 17.2}
{"smiles": "O=C(COC(=O)/C=C/c1ccccc1[N+](=O)[O-])Nc1ccc(S(=O)(=O)N2CCOCC2)cc1", "solubility kinetic": 24}
{"smiles": "CC(C)COc1ncnc2c1sc1nc3c(cc12)COC(C)(C)C3", "solubility kinetic": 3.7}
{"smiles": "O=C(NC1CCCCCCC1)c1cccc(Cl)c1", "solubility kinetic": 0.9}
{"smiles": "CCCSc1nc2ccccc2n1CC(=O)O", "solubility kinetic": "> 37.5"}
{"smiles": "c1ccc(-c2csc(Nc3cccnc3)n2)cc1", "solubility kinetic": 2.2}
{"smiles": "Cc1cccc(C)c1OCCN1C(=O)NC(C)(c2ccccc2)C1=O", "note": "(stereo not given)", "solubility kinetic": 5}
{"smiles": "Cc1c(C(=O)C(=O)NCCCn2ccnc2)c2ccccc2n1C", "solubility kinetic": "> 48.7"}
{"smiles": "O=C(Nc1ccccc1C(=O)N1CCCCC1)c1cccs1", "solubility kinetic": "> 47.2"}
{"smiles": "CC(=O)NCCc1nc2cc(NC(=O)c3ccccc3)ccc2n1C", "solubility kinetic": "> 50.5"}
{"smiles": "O=C(CCc1nc(-c2ccc(Cl)cc2)no1)NC1CCCC1", "solubility kinetic": 6.4}
{"smiles": "CCC(=O)N(CCC1(c2ccccc2OC)CCOC(C(C)C)C1)Cc1ccco1", "note": "(stereo not given)", "solubility kinetic": 21.4}
{"smiles": "CCOc1ccc(C(C)=O)cc1CN1C(=O)C(=O)N(CC)C1=O", "solubility kinetic": 41.5}
{"smiles": "CCCC1=C(C(=O)OCC)C(c2ccco2)C(C#N)=C(N)O1", "note": "(stereo not given)", "solubility kinetic": 30.3}
{"smiles": "Cc1ncc([N+](=O)[O-])n1Cc1ccccc1F", "solubility kinetic": "> 35.3"}
{"smiles": "CCN(CC)CC(C)OC(=O)c1ccccc1Cl", "note": "(stereo not given)", "solubility kinetic": 37.9}
{"smiles": "Brc1ccc(OCCCOc2cccc3cccnc23)cc1", "solubility kinetic": "< 0.8"}
{"smiles": "COC(=O)c1ccc(COC(=O)CNC(=O)c2ccc(OC)cc2)cc1", "solubility kinetic": 17.3}
{"smiles": "CC(=O)C1=C(C)NC(=S)NC1c1cccc([N+](=O)[O-])c1", "note": "(stereo not given)", "solubility kinetic": 3.5}
{"smiles": "CN(C)/C=N/c1sc2c(c1C(N)=O)CCCC2", "solubility kinetic": 19.4}
{"smiles": "O=c1[nH]c(=S)n(C2CC2)c(O)c1C=NCc1cccnc1", "solubility kinetic": "> 45.4"}
{"smiles": "Cc1ccc(N(Cc2ccccc2)C(=O)c2cccc(F)c2)cc1", "solubility kinetic": 11.1}
{"smiles": "COc1ccc(-c2noc(CCC(=O)Nc3cccnc3)n2)cc1", "solubility kinetic": 3.8}
{"smiles": "COc1ccc(OC)c(/C=C(\\C)C(=O)c2c(C)cc(C)[nH]c2=O)c1", "solubility kinetic": 40.4}
{"smiles": "CCOC(=O)C1CCCN(S(=O)(=O)c2ccc(NC(C)=O)cc2)C1", "note": "(stereo not given)", "solubility kinetic": "> 53.2"}
{"smiles": "N#Cc1ccc(N=c2ssnc2Cl)cc1", "solubility kinetic": 4.2}
{"smiles": "CC12CCC(C/C1=N/O)C2(C)CBr", "note": "(stereo not given)", "solubility kinetic": "> 36.9"}
{"smiles": "CC1CCc2onc(C(=O)NCc3ccco3)c2C1", "note": "(stereo not given)", "solubility kinetic": 22.6}
{"smiles": "COc1ccccc1CN(C)CC(=O)Nc1cccc(S(=O)(=O)N2CCCC2)c1.O=C(O)C(=O)O", "solubility kinetic": 57.3}
{"smiles": "CCn1c(=S)[nH]c2cc(Cl)ccc21", "solubility kinetic": "> 31.9"}
{"smiles": "COc1ccc(N2CC(C(=O)NCc3ccco3)CC2=O)cc1", "note": "(stereo not given)", "solubility kinetic": 32.2}
{"smiles": "CC1CCN(CCC(=O)Nc2ccc(F)c(F)c2)CC1", "solubility kinetic": "> 42.3"}
{"smiles": "CCCCNC(=O)COC(=O)c1ccccc1F", "solubility kinetic": 37.9}
{"smiles": "O=C1[C@@H]2C(c3cccnc3)=NO[C@@H]2C(=O)N1c1ccc2ccccc2c1", "solubility kinetic": 43}
{"smiles": "COc1cccc2cc(C(=O)Nc3ccccc3C)/c(=N/O)oc12", "solubility kinetic": 4.6}
{"smiles": "Cl.NCCCCNCCCN", "solubility kinetic": 16.4}
{"smiles": "O=C(Nc1ccc(N2CCOCC2)c(F)c1)c1cccs1", "solubility kinetic": 17}
{"smiles": "O=C(CN1C(=O)NC2(CCc3ccccc32)C1=O)Nc1cccc(Cl)c1", "note": "(stereo not given)", "solubility kinetic": 54.2}
{"smiles": "Cn1cccc1/C=N/NC(=O)CSc1nc2ccccc2[nH]1", "solubility kinetic": "> 47"}
{"smiles": "O=C(NCc1ccco1)NC(=O)c1csc([N+](=O)[O-])c1", "solubility kinetic": 0.6}
{"smiles": "Oc1cc2c(cc1CN1CCN(c3ccccc3)CC1)OCO2", "solubility kinetic": 17.6}
{"smiles": "O=C(Cc1cccs1)N1CCN(c2cccc(Cl)c2)CC1", "solubility kinetic": 42.9}
{"smiles": "O=C(CN1CCN(c2ccc(Cl)cc2)CC1)c1ccccc1", "solubility kinetic": 18.7}
{"smiles": "CCN(CC)c1ncc(C#N)c(N)n1", "solubility kinetic": 25.6}
{"smiles": "CC1(N(O)C=C2C=CC(=O)C=C2)CCCCC1=O", "note": "(stereo not given)", "solubility kinetic": "> 37.1"}
{"smiles": "O=C(Nc1cccc(S(=O)(=O)NC2=NCCC2)c1)c1ccccc1", "solubility kinetic": "> 51.5"}
{"smiles": "Cc1cccc(Nc2ccc([N+](=O)[O-])cn2)c1", "solubility kinetic": 13.4}
{"smiles": "O=[N+]([O-])c1ccc2c(c1)Nc1nc3ccccc3nc1N2", "solubility kinetic": 1.4}
{"smiles": "O=C(N/N=C/c1ccc2c(c1)OCO2)C1CC1", "solubility kinetic": "> 34.8"}
{"smiles": "Cc1ccc(C)n1-c1cccc(C(=O)Nc2ccccc2)c1", "solubility kinetic": 13.9}
{"smiles": "O=[N+]([O-])c1ccccc1/C=C/CN1CCSCC1", "solubility kinetic": 29.2}
{"smiles": "Cc1cccc(OC(C)C(=O)Nc2ccc(S(=O)(=O)N3CCCC3)cc2)c1", "note": "(stereo not given)", "solubility kinetic": 16.4}
{"smiles": "ONC(=Nc1ccccc1Cl)c1c(F)cccc1F", "solubility kinetic": 19}
{"smiles": "N#CC1=C(N)Oc2cc(N)ccc2C1c1ccc(Cl)cc1", "note": "(stereo not given)", "solubility kinetic": 3.4}
{"smiles": "CCCOc1ccc(C2=CSC3=NCCN23)cc1.Cl", "solubility kinetic": 37.4}
{"smiles": "COc1ccc(NCC(=O)Nc2cccc(C(F)(F)F)c2)cc1S(=O)(=O)N1CCOCC1", "solubility kinetic": 3.4}
{"smiles": "O=C(CN1CCN(Cc2ccc(F)cc2)CC1)NCc1ccccc1", "solubility kinetic": "> 51.2"}
{"smiles": "CC(=O)c1cccc(NC(=O)CC(C)n2ccnc2)c1", "note": "(stereo not given)", "solubility kinetic": "> 40.7"}
{"smiles": "Cc1cc(NC(=O)OC2CCCCC2)ccc1[N+](=O)[O-]", "solubility kinetic": 0.4}
{"smiles": "CCc1nonc1NC(=O)c1oc2ccc(F)cc2c1C", "solubility kinetic": 0.3}
{"smiles": "O=C1CSC(=Nc2cccc(Cl)c2Cl)N1Cc1cccnc1", "solubility kinetic": 30.8}
{"smiles": "COC(=O)C1CCN(CC(=O)Nc2ccc3c(c2)OCCO3)CC1", "solubility kinetic": "> 50.2"}
{"smiles": "N#Cc1ccc(OCC(=O)OCC(=O)c2ccc[nH]2)cc1", "solubility kinetic": "> 42.6"}
{"smiles": "COc1ccc(NS(=O)(=O)c2csc(C(N)=O)c2)cc1", "solubility kinetic": "> 46.9"}
{"smiles": "Cc1ccc(C(=O)NC(=S)NCc2cccnc2)cc1C", "solubility kinetic": 26.9}
{"smiles": "COC(=O)c1cc(C(=O)OCC(=O)N2CCCCC2)cc([N+](=O)[O-])c1", "solubility kinetic": "> 52.5"}
{"smiles": "COc1cc(C(C)=O)ccc1OCC(=O)NC(=O)Nc1ccc(C)cc1C", "solubility kinetic": 14.1}
{"smiles": "O=C(O)c1ccc(Nc2ccc(Cl)c(Cl)c2)c([N+](=O)[O-])c1", "solubility kinetic": "> 49.1"}
{"smiles": "Fc1ccc(NC(=S)Nc2cccnc2)cc1Cl", "solubility kinetic": "> 42.3"}
{"smiles": "O=C1Nc2ccccc2/C1=C/c1ccccc1F", "solubility kinetic": 2.4}
{"smiles": "Cc1ccc(NC(=O)C2CC2c2ccccc2)cc1", "note": "(stereo not given)", "solubility kinetic": 2.4}
{"smiles": "C=CCn1cccc(C(=O)Nc2ccc(Cl)cc2)c1=O", "solubility kinetic": 3.4}
{"smiles": "Cc1ccc(C(=O)N=c2sccn2C)cc1C", "solubility kinetic": 10}
{"smiles": "COc1ccc(Cl)cc1NC(=O)CSc1cccc[n+]1[O-]", "solubility kinetic": "> 48.7"}
{"smiles": "CC1=NCCN1CCNC(=O)Nc1ccc(C(C)(C)C)cc1", "solubility kinetic": "> 45.4"}
{"smiles": "CC(C)N(C(=S)Nc1cccnc1)c1ccccc1", "solubility kinetic": 32.8}
{"smiles": "O=C1COc2ccc(S(=O)(=O)NCCc3ccccc3)cc2N1", "solubility kinetic": 13}
{"smiles": "CN(C(=O)c1ccc(NC(=O)c2ccco2)cc1)c1ccccc1", "solubility kinetic": 2.9}
{"smiles": "COC(=O)Nc1ccc(S(=O)(=O)NC2CCCCC2)cc1", "solubility kinetic": 3.2}
{"smiles": "CCc1nc(SCc2ccccn2)[nH]c(=O)c1C", "solubility kinetic": "> 39.2"}
{"smiles": "Cc1c(Cl)cccc1Nc1ncccc1C(=O)O", "solubility kinetic": 34}
{"smiles": "FC(F)(F)c1ccc(NC2=NCCCS2)cc1", "solubility kinetic": 15.6}
{"smiles": "C=C(C)CN(CC)C(=O)CC1C(=O)NCCN1CC(C)(C)C", "note": "(stereo not given)", "solubility kinetic": 39.6}
{"smiles": "Cc1ccc(C)c(NC(=O)COC(=O)CC2CC3CCC2C3)c1", "note": "(stereo not given)", "solubility kinetic": 20.4}
{"smiles": "COc1cccc(-c2nc3ccc(N4CCN(C)CC4)cc3[nH]2)c1", "solubility kinetic": 14.5}
{"smiles": "Cc1ccc(S(=O)(=O)N2CCCCC2)cc1C(=O)NCc1ccccn1", "solubility kinetic": 52}
{"smiles": "COC(=O)n1c(=O)oc2ccc(S(=O)(=O)N3CCCCC3)cc21", "solubility kinetic": "> 51.1"}
{"smiles": "COCc1cc(=O)[nH]c(-c2csc(C)n2)n1", "solubility kinetic": "> 35.6"}
{"smiles": "CCOP(=O)(c1ccccc1)C1(C#N)CC1", "note": "(stereo not given)", "solubility kinetic": 23}
{"smiles": "COc1cc(S(=O)(=O)N2CCN(Cc3ccc4c(c3)OCO4)CC2)ccc1NC(C)=O.Cl", "solubility kinetic": 10.5}
{"smiles": "Cc1nc2ccccc2n1Cc1ccc(Br)cc1", "solubility kinetic": 37.8}
{"smiles": "O=C(COC(=O)/C=C/c1cccc(F)c1)NC1CC1", "solubility kinetic": "> 39.5"}
{"smiles": "COc1ccc(Cl)cc1NC(=O)CN1c2ccccc2CC1C", "note": "(stereo not given)", "solubility kinetic": 2.2}
{"smiles": "NC(=O)NC(=O)CN1C(=O)NC2(CCOc3ccccc32)C1=O", "note": "(stereo not given)", "solubility kinetic": "> 47.7"}
{"smiles": "Cc1c(C(=O)O)cc(C(C)(C)C)n1CCSCCO", "solubility kinetic": 38.8}
{"smiles": "CC(C)(C)C(=O)OCc1nc(-c2ccc(Cl)cc2)cs1", "solubility kinetic": "< 0.7"}
{"smiles": "O=C(COC(=O)Cc1ccc([N+](=O)[O-])cc1)NC1CCCCCC1", "solubility kinetic": "> 50.2"}
{"smiles": "O=C(NCc1ccc(Cl)cc1)c1ccc(N2CCCC2=O)cc1", "solubility kinetic": 5.3}
{"smiles": "CCCCN(C(C)=O)C1CC(=O)N(c2ccc(OCCC)cc2)C1=O", "note": "(stereo not given)", "solubility kinetic": "> 52"}
{"smiles": "CC(OC(=O)c1ccccc1)C(=O)NCCC1=CCCCC1", "note": "(stereo not given)", "solubility kinetic": "> 45.2"}
{"smiles": "Cc1nn(CC(=O)NC2(C)CCS(=O)(=O)C2)c(C)c1S(=O)(=O)N(C)C", "note": "(stereo not given)", "solubility kinetic": "> 58.9"}
{"smiles": "Cc1ccc(C)c(S(=O)(=O)N2CCN(c3ncnc4sccc34)CC2)c1", "solubility kinetic": 5.6}
{"smiles": "COc1ccc(C)cc1S(=O)(=O)NCc1cccs1", "solubility kinetic": 42.4}
{"smiles": "Cc1ccc(C(=O)NN2CCOCC2)cc1[N+](=O)[O-]", "solubility kinetic": "> 39.8"}
{"smiles": "Cc1ccc(NC2c3ccccc3C(=O)N2c2cccnc2)cc1", "note": "(stereo not given)", "solubility kinetic": 40.5}
{"smiles": "O=C(O)c1cc([N+](=O)[O-])ccc1NCc1cccnc1", "solubility kinetic": "> 41"}
{"smiles": "O=C(/C=C/c1ccc(F)cc1)NC(=S)Nc1ccccc1O", "solubility kinetic": 1.8}
{"smiles": "O=C(CCN1C(=O)c2ccccc2C1=O)CN1CCOCC1", "solubility kinetic": 36.5}
{"smiles": "CCc1ccccc1NC(=O)N1CCc2ccccc21", "solubility kinetic": 6.1}
{"smiles": "Clc1ccccc1OCCCCN1CCCCC1", "solubility kinetic": 39.9}
{"smiles": "O=C(NC1CCCC1)C1CC(=O)N(c2ccccc2)C1", "note": "(stereo not given)", "solubility kinetic": "> 40.9"}
{"smiles": "Cc1c(C(=O)O)sc2nc3n(c(=O)c12)CCC3", "solubility kinetic": "> 37.5"}
{"smiles": "O=C1CCCN=C(Nc2ccc(F)c(Cl)c2)S1", "solubility kinetic": 3.1}
